SMILES strings stand for the structures. ≈ marks a conversion by molar mass, not a printed value. Read-outs that look alike come from different tables or passages of the source.

In assay [1] the test system is human umbilical vein endothelial cell line HUVEC. Briefly: Cell growth inhibitory (cytotoxic) activity assay. It counts as cell-based. An excerpt: (§1) The cell growth inhibitory activities of compounds 1–3 against fourteen different human cell lines (human liver cell line LX-2; hepatocellular cancer line HEPG2; human intestinal epithelial cell line NCM460; colorectal cancer cell lines HCT116 and SW480; normal human breast cell line MCF-10A; breast cancer cell line MCF7; triple-negative breast cancer cell lines MDA-MB-231, MDA-MB-468, and Bt-549; human umbilical vein endothelial cell line; lung cancer cell line A549; cervical cancer cell line Hela; and cholangiocarcinoma cell line RBE) were tested according to the previously published methods. SPSS software version 22.0 was used to test the IC50 values. Cisplatin and adriamycin were used as positive control agents, and all the experiments were carried out in triplicate.

Assay [2] concerns normal human breast cell line MCF-10A. Briefly: Cell growth inhibitory (cytotoxic) activity assay. It counts as cell-based. The following applies: MCF-10A (normal human breast cell line).
Description: as §1

Assay [3] deals with human intestinal epithelial cell line NCM460. The assay is described as follows: Cell growth inhibitory (cytotoxic) activity assay. It counts as cell-based. The conditions noted are these: NCM460 (normal intestinal epithelial cell line).
Description: as §1

Assay [4] relates to human liver cell line LX-2. The assay is described as follows: Cell growth inhibitory (cytotoxic) activity assay. It counts as cell-based. The following applies: LX-2 (human liver cell line).
Description: as §1

Assay [5] has as its system colorectal cancer cell line SW480. Briefly: Cell growth inhibitory (cytotoxic) activity assay. The class given is cell-based, human. The conditions noted are these: SW480 (colorectal cancer).
Description: as §1

The test system of assay [6] is lung cancer cell line A549. The assay is described as follows: Cell growth inhibitory (cytotoxic) activity assay. It counts as cell-based, human. The conditions noted are these: Homo sapiens.
Description: as §1

Assay [7] concerns triple-negative breast cancer cell line Bt-549. Briefly: Cell growth inhibitory (cytotoxic) activity assay. It counts as cell-based, human. The following applies: Bt-549 (TNBC).
Description: as §1

The subject of assay [8] is triple-negative breast cancer cell line MDA-MB-231. The assay is described as follows: Cell growth inhibitory (cytotoxic) activity assay. The following applies: MDA-MB-231 (TNBC). It counts as cell-based, human.
Description: as §1

The test system of assay [9] is cholangiocarcinoma cell line RBE. Briefly: Cell growth inhibitory (cytotoxic) activity assay. The class given is cell-based, human.
Description: as §1

Assay [10] concerns hepatocellular cancer line HEPG2. Briefly: Cell growth inhibitory (cytotoxic) activity assay. The class given is cell-based, human.
Description: as §1

Assay [11] concerns triple-negative breast cancer cell line MDA-MB-468. Briefly: Cell growth inhibitory (cytotoxic) activity assay. It counts as cell-based, human. The conditions noted are these: MDA-MB-468 (TNBC).
Description: as §1

In assay [12] the test system is cervical cancer cell line Hela. Briefly: Cell growth inhibitory (cytotoxic) activity assay. It counts as cell-based, human.
Description: as §1

Assay [13] concerns colorectal cancer cell line HCT116. The assay is described as follows: Cell growth inhibitory (cytotoxic) activity assay. It counts as cell-based, human.
Description: as §1

Assay [14] relates to Staphylococcus aureus 1862. Briefly: Antibacterial MIC, CLSI microdilution. The class given is cell-based. The following applies: Staphylococcus aureus 1862; 37 °C, 16–18 h; read-out: MIC. As for the experimental part:
(§2) An antibacterial activity test of compounds 1–3 was conducted according to a standard protocol provided by the Clinical and Laboratory Standards Institute (CLSI). Sixteen bacterial strains were used, including Staphylococcus aureus ATCC 29213, Staphylococcus aureus 16339, Staphylococcus aureus 1862, Staphylococcus aureus 3090, Staphylococcus aureus 991, Staphylococcus aureus 669, Staphylococcus aureus 745324, Staphylococcus aureus 16162, Staphylococcus aureus (cfr) GDE4P037P, Enterococcus faecalis ATCC 29212, Enterococcus faecalis 36950, Micrococcus luteus ML01, MRSA, Bacillus subtilis BS01, Enterococcus gallinarum 5F52C, and Enterococcus faecium 36711. Compounds 1–3 were dissolved in DMSO at a concentration of 3.2 mg/mL, and vancomycin and ampicilin were used as antibacterial control agents. […] All the assays were carried out in triplicate.
(In general: Broth dilution looks for growth in wells or tubes with falling amounts of substance.)

Assay [15] deals with Enterococcus faecium 36711. The assay is described as follows: Antibacterial MIC, CLSI microdilution. The class given is cell-based. The following applies: Enterococcus faecium 36711; 37 °C, 16–18 h; read-out: MIC. Here is the method: as §2
For assay [16], the system named is Staphylococcus aureus 3090. Briefly: Antibacterial MIC, CLSI microdilution. The class given is cell-based. The conditions noted are these: Staphylococcus aureus 3090; 37 °C, 16–18 h; read-out: MIC. Here is the method: as §2
For assay [17], the system named is Staphylococcus aureus 669. Briefly: Antibacterial MIC, CLSI microdilution. The conditions noted are these: Staphylococcus aureus 669; 37 °C, 16–18 h; read-out: MIC. The class given is cell-based. Here is the method:
as §2

The test system of assay [18] is Staphylococcus aureus ATCC 29213. Briefly: Antibacterial MIC, CLSI microdilution. The conditions noted are these: ATCC29213; Staphylococcus aureus ATCC 29213; 37 °C, 16–18 h; read-out: MIC. The class given is cell-based. As for the experimental part: as §2
The subject of assay [19] is Staphylococcus aureus 16339. Briefly: Antibacterial MIC, CLSI microdilution. It counts as cell-based. The conditions noted are these: Staphylococcus aureus 16339; 37 °C, 16–18 h; read-out: MIC. Here is the method:
as §2

The test system of assay [20] is Enterococcus faecalis 36950. The assay is described as follows: Antibacterial MIC, CLSI microdilution. It counts as cell-based. The following applies: Enterococcus faecalis 36950; 37 °C, 16–18 h; read-out: MIC. As for the experimental part: as §2
In another assay the test system is Micrococcus luteus ML01. The assay is described as follows: Antibacterial MIC, CLSI microdilution. It counts as cell-based. The following applies: Micrococcus luteus, ML01, Micrococcus luteus ML01; 37 °C, 16–18 h; read-out: MIC. Here is the method: as §2
Assay [21] deals with Enterococcus gallinarum 5F52C. Briefly: Antibacterial MIC, CLSI microdilution. The class given is cell-based. The following applies: Enterococcus gallinarum 5F52C; 37 °C, 16–18 h; read-out: MIC. As for the experimental part: as §2
Assay [22] concerns Staphylococcus aureus 745324. The assay is described as follows: Antibacterial MIC, CLSI microdilution. It counts as cell-based. The following applies: Staphylococcus aureus 745324; 37 °C, 16–18 h; read-out: MIC. Here is the method:
as §2

Another assay deals with Bacillus subtilis BS01. The assay is described as follows: Antibacterial MIC, CLSI microdilution. The class given is cell-based. The conditions noted are these: Bacillus subtilis BS01; 37 °C, 16–18 h; read-out: MIC. As for the experimental part: as §2
In assay [23] the test system is Staphylococcus aureus (cfr) GDE4P037P. Briefly: Antibacterial MIC, CLSI microdilution. It counts as cell-based. The following applies: Staphylococcus aureus (cfr) GDE4P037P; 37 °C, 16–18 h; read-out: MIC. As for the experimental part: as §2
Assay [24] has as its system Staphylococcus aureus 991. The assay is described as follows: Antibacterial MIC, CLSI microdilution. It counts as cell-based. The following applies: Staphylococcus aureus 991; 37 °C, 16–18 h; read-out: MIC. As for the experimental part: as §2
Assay [25] has as its system Enterococcus faecalis ATCC 29212. Briefly: Antibacterial MIC, CLSI microdilution. The conditions noted are these: ATCC29212; Enterococcus faecalis ATCC 29212; 37 °C, 16–18 h; read-out: MIC. It counts as cell-based. As for the experimental part:
as §2

For assay [26], the system named is Staphylococcus aureus 16162. Briefly: Antibacterial MIC, CLSI microdilution. It counts as cell-based. The conditions noted are these: Staphylococcus aureus 16162; 37 °C, 16–18 h; read-out: MIC. Here is the method: as §2
For assay [27], the system named is Staphylococcus simulans AKA1. The assay is described as follows: Antibacterial MIC, CLSI microdilution. It counts as cell-based. The following applies: Staphylococcus simulans AKA1; 37 °C, 16–18 h; read-out: MIC.
The test system of the next assay is MRSA. The assay is described as follows: Antibacterial MIC, CLSI microdilution. The conditions noted are these: Staphylococcus aureus, 37 °C, 16–18 h, read-out: MIC. It counts as cell-based, Staphylococcus aureus. As for the experimental part: as §2
Assay [28] relates to breast cancer cell line MCF7. Briefly: Cell growth inhibitory (cytotoxic) activity assay. It counts as cell-based, human. The text has this:
SPSS software version 22.0 was used to test the IC50 values.

A word on the IC50: it is the concentration that gives 50% inhibition. Lower therefore signals greater potency. In the case of `COc1cccc2c1C(=O)c1c(O)c3c(c(O)c1C2=O)C[C@@](O)(C(=O)CO)C[C@@H]3O[C@H]1C[C@H](N)[C@H](O)[C@H](C)O1` [Adriamycin, reference compound], the IC50 was 12 µM in [1]; 3.72 µM in [2]; 3.89 µM in [3] (Homo sapiens); 1.36 µM in assay [4]; 17.5 µM in [5] (Homo sapiens); 1.51 µM in assay [6]. In addition, the IC50 was determined as 3.75 µM in [7] (Homo sapiens); 4.04 µM in assay [8] (Homo sapiens); 4.26 µM in assay [9] (Homo sapiens); 15.5 µM in [10] (Homo sapiens); 3.16 µM in assay [11] (Homo sapiens); 7.02 µM in assay [12] (Homo sapiens). In assay [13] (Homo sapiens, HCT-116), this compound had an IC50 of 1.54 µM.

In general, MIC refers to the lowest concentration found to suppress growth. For `CC1(C)S[C@@H]2[C@H](NC(=O)[C@H](N)c3ccccc3)C(=O)N2[C@H]1C(=O)O` [Ampicillin, reference compound], the MIC in assay [14] was 4 µg/mL (≈ 11.4 µM); in assay [15] it was above 64 µg/mL; in assay [16], 16 µg/mL (≈ 45.8 µM); in assay [17], 8 µg/mL (≈ 22.9 µM); in assay [18], 1 µg/mL (≈ 2.86 µM); in assay [19] it was 64 µg/mL (≈ 183 µM). Also, the MIC in assay [20] is above 64 µg/mL; in the assay with Micrococcus luteus ML01 it was 0.13 µg/mL (≈ 0.372 µM); in [21] it was 8 µg/mL (≈ 22.9 µM); in assay [22], 4 µg/mL (≈ 11.4 µM); in the assay on Bacillus subtilis BS01 it was 0.13 µg/mL (≈ 0.372 µM); in assay [23] it was 16 µg/mL (≈ 45.8 µM). The MIC was 4 µg/mL (≈ 11.4 µM) in assay [24]; 1 µg/mL (≈ 2.86 µM) in assay [25]; 16 µg/mL (≈ 45.8 µM) in assay [26]; above 64 µg/mL in assay [27]; 32 µg/mL (≈ 91.6 µM) in the assay on MRSA.

With `N.N.[Cl][Pt][Cl]` [Cisplatin, reference compound], the 50% inhibitory concentration (IC50) in assay [1] turned out to be 7.7 µM; in assay [2], 6.43 µM; in assay [3] it was 3.17 µM; in assay [4] it was 12.1 µM; in assay [5], 1.82 µM; in assay [7], 7.54 µM. Besides, the IC50 came to 15.7 µM in [8]; 13.5 µM in [9]; 11 µM in [10]; 8.35 µM in assay [11]; 7.62 µM in [12]; 4.83 µM in [13]. In assay [28], the IC50 amounted to 4.56 µM.

The values are drawn from article PMC10817512, “OSMAC-Based Discovery and Biosynthetic Gene Clusters Analysis of Secondary Metabolites from Marine-Derived Streptomyces globisporus SCSIO LCY30” (Marine Drugs, 2023).
